# Measurements as given in patent US4001325A, “α-Chloroacetanilide selective herbicides” (Diamond Shamrock Corporation, priority 1973, dated 1977).
# How the values were obtained:
# [1] = tested on: Redroot Pigweed; test: Field preemergence test, weed control; type: in vivo; details: 3-4 weeks after planting
# Excerpt: (§1) Test plots of fertilized, light sandy soil containing 0.7% organic matter are sprayed uniformly with aqueous suspensions prepared from emulsifiable concentrates containing 12%, by weight, of the test chemicals diluted to provide dosage rates of the test compounds corresponding to 2.0, 1.0, 0.5, and 0.25 pound per acre (lb/A). The plots are then sown with seeds of the following crop plants: sweet corn, cotton (Coker 413) and soybeans, var. Davis. Seeds of the following weed plants are planted: redroot pigweed, prickly sida, common lambsquarter, goosegrass and giant foxtail.
# (§2) Three to four weeks after planting, percent control (plant kill) of the test plants is estimated, from a rating of 0 which denotes no injury to the plant up to 100 which denotes complete destruction. The herbicidal action of the test compounds obtained on the weed species is as follows: […]
# [2] = tested on: Prickly Sida; test: Field preemergence test, weed control; type: in vivo; details: 3-4 weeks after planting
# Excerpt: as §1, §2
# [3] = tested on: Giant Foxtail; test: Field preemergence test, weed control; type: in vivo; details: 3-4 weeks after planting
# Excerpt: as §1, §2
# [4] = tested on: Common Lambsquarter; test: Field preemergence test, weed control; type: in vivo; details: 3-4 weeks after planting
# Excerpt: as §1, §2
# [5] = tested on: Goosegrass; test: Field preemergence test, weed control; type: in vivo; details: 3-4 weeks after planting
# Excerpt: as §1, §2
# [6] = tested on: Soybeans; test: Example 18 phytotoxic effects on crop stands in different soils; type: in vivo, soybean
# Method: (§3) To further illustrate the herbicidal activity of compounds of this invention in different types of soil as would be encountered in different crop growing localities, a preemergence herbicide test is conducted generally as outlined previously herein. Two light sandy soils are employed containing 0.7% and 1.8% organic matter (O.M.), respectively, along with two loam-type, heavier soils containing either 2.0% or 5-5.5% organic matter (O.M.).
# (§4) The test plots are all sprayed uniformly with formulations of the test compounds providing 2.0, 1.0, 0.5, and 0.25 pound of active chemical per acre (lb/A).
# (§5) Prior to treatment, the soil plots are sown to field corn, soybean, and grain sorghum crops and seeds of barnyard-grass and yellow foxtail.
# (§6) Three weeks after planting, the percent control of plant growth is rated from 0% (no injury) to 100% (total destruction). The results obtained are as follows:
# (§7) Phytotoxic effects on the crop stands are similarly rated with the following results: […]
# [7] = tested on: Soybeans; test: Field preemergence test, phytotoxic effects on crop; type: in vivo, var. Davis
# Excerpt: as §1
# (§8) Three to four weeks after planting, percent control (plant kill) of the test plants is estimated, from a rating of 0 which denotes no injury to the plant up to 100 which denotes complete destruction. The herbicidal action of the test compounds obtained on the weed species is as follows:
# (§9) Phytotoxic effects observed on the crop species is estimated with results as follows: […]
# [8] = tested on: corn; test: Example 17 damage to corn crop; type: in vivo; details: 1 lb/A
# Excerpt: (§10) This example illustrates the selective herbicidal activity of two of the presently preferred compounds of this invention against various weed species in a corn crop.
# (§11) Plots of light sandy soil, cleared of all weeds, are uniformly treated with aqueous dispersions prepared from an emulsifiable concentrate containing 2- 4 pounds of active ingredient per gallon. Diluted aqueous dispersions are applied as surface treatments at 2.0, 1.0, 0.5, and 0.25 pound of active ingredient per acre (lb/A).
# (§12) The treated test plots are sown to corn and with seeds of the following weed species:
# (§13) Three to four weeks after planting, the degree of damage to both the corn stands and the weed plants is assessed from a rating of 0% (no injury) to 100% (complete destruction).
# [9] = tested on: Goosegrass; test: Example 17 selective herbicidal activity in corn crop, weed kill; type: in vivo, Eleusine indica; details: 3-4 weeks after planting
# Excerpt: as §10, §11, §12, §13
# [10] = tested on: Yellow Foxtail; test: as above; type: in vivo, Setaria lutescens; details: Setaria, 3-4 weeks after planting
# Excerpt: as §10, §11, §12, §13
# [11] = tested on: Corn; test: Example 18 phytotoxic effects on crop stands in different soils; type: in vivo, field corn
# Method: as §3, §4, §5, §6, §7
# [12] = tested on: Yellow Foxtail; test: Example 18 preemergence herbicide test in different soils, % control; type: in vivo; details: three weeks
# Method: as §3, §4, §5
# Three weeks after planting, the percent control of plant growth is rated from 0% (no injury) to 100% (total destruction).
# [13] = tested on: Corn; test: Field preemergence test, phytotoxic effects on crop; type: in vivo, sweet corn
# Excerpt: as §1, §8, §9
# [14] = tested on: Barnyardgrass; test: Example 17 selective herbicidal activity in corn crop, weed kill; type: in vivo, Echinochloa crusgalli; details: Echinochloa crus-galli, 3-4 weeks after planting
# Excerpt: as §10, §11, §12, §13
# [15] = 0.5 lb/A, Heavy Soil 5-5.5% O.M.
# [16] = 0.5 lb/A, Medium Soil 2.0% O.M.
# [17] = 1.0 lb/A, Heavy Soil 5-5.5% O.M.
# [18] = 1.0 lb/A, Medium Soil 2.0% O.M.
# [19] = 2.0 lb/A, Heavy Soil 5-5.5% O.M.
# [20] = 2.0 lb/A, Medium Soil 2.0% O.M.
smiles,measurement,setting,value
"C#CCN(C(=O)CCl)c1c(C)cccc1CC [Example 15, 2-Chloro-2'-methyl-6'-ethyl-N-propargylacetanilide]","% Weed Control, Redroot Pigweed",[1]; 0.25 lb/A,65%
same,"% Weed Control, Redroot Pigweed",[1]; 0.5 lb/A,89%
same,"% Weed Control, Redroot Pigweed",[1]; 1.0 lb/A,100%
same,"% Weed Control, Redroot Pigweed",[1]; 2.0 lb/A,100%
same,"% Weed Control, Prickly Sida",[2]; 0.25 lb/A,0%
same,"% Weed Control, Prickly Sida",[2]; 0.5 lb/A,55%
same,"% Weed Control, Prickly Sida",[2]; 1.0 lb/A,93%
same,"% Weed Control, Prickly Sida",[2]; 2.0 lb/A,97%
same,"% Weed Control, Giant Foxtail",[3]; 0.25 lb/A,47%
same,"% Weed Control, Giant Foxtail",[3]; 0.5 lb/A,78%
same,"% Weed Control, Giant Foxtail",[3]; 1.0 lb/A,97%
same,"% Weed Control, Giant Foxtail",[3]; 2.0 lb/A,100%
same,"% Weed Control, Common Lambsquarter",[4]; 0.25 lb/A,95%
same,"% Weed Control, Common Lambsquarter",[4]; 0.5 lb/A,98%
same,"% Weed Control, Common Lambsquarter",[4]; 1.0 lb/A,100%
same,"% Weed Control, Common Lambsquarter",[4]; 2.0 lb/A,100%
same,"% Weed Control, Goosegrass",[5]; 0.25 lb/A,87%
same,"% Weed Control, Goosegrass",[5]; 0.5 lb/A,97%
same,"% Weed Control, Goosegrass",[5]; 1.0 lb/A,100%
same,"% Weed Control, Goosegrass",[5]; 2.0 lb/A,100%
same,"% Phytotoxicity, Soybeans",[6]; [15],0%
same,"% Phytotoxicity, Soybeans",[6]; [16],0%
same,"% Phytotoxicity, Soybeans","[6]; 0.5 lb/A, Sand 0.7% O.M.",0%
same,"% Phytotoxicity, Soybeans","[6]; 0.5 lb/A, Sand 1.8% O.M.",0%
same,"% Phytotoxicity, Soybeans",[6]; [17],0%
same,"% Phytotoxicity, Soybeans",[6]; [18],0%
same,"% Phytotoxicity, Soybeans","[6]; 1.0 lb/A, Sand 0.7% O.M.",0%
same,"% Phytotoxicity, Soybeans","[6]; 1.0 lb/A, Sand 1.8% O.M.",0%
same,"% Phytotoxicity, Soybeans",[6]; [19],0%
same,"% Phytotoxicity, Soybeans",[6]; [20],0%
same,"% Phytotoxicity, Soybeans","[6]; 2.0 lb/A, Sand 0.7% O.M.",0%
same,"% Phytotoxicity, Soybeans","[6]; 2.0 lb/A, Sand 1.8% O.M.",0%
same,"% Crop Kill, Soybeans",[7]; 0.5 lb/A,0%
same,"% Crop Kill, Soybeans",[7]; 1.0 lb/A,3%
same,"% Crop Kill, Soybeans",[7]; 2.0 lb/A,13%
same,injury to the corn,[8],no injury
same,"% Weed Kill, Goosegrass",[9]; 0.25 lb/A,82%
same,"% Weed Kill, Goosegrass",[9]; 0.5 lb/A,100%
same,"% Weed Kill, Goosegrass",[9]; 1.0 lb/A,100%
same,"% Weed Kill, Goosegrass",[9]; 2.0 lb/A,100%
same,mortality at 280.212 g/ha,[10]; 0.25 lb/A,82%
same,mortality at 560.425 g/ha,[10]; 0.5 lb/A,97%
same,mortality at 1120.85 g/ha,[10]; 1.0 lb/A,100%
same,mortality at 2241.7 g/ha,[10]; 2.0 lb/A,100%
same,"% Phytotoxicity, Corn",[11]; [15],0%
same,"% Phytotoxicity, Corn",[11]; [16],0%
same,"% Phytotoxicity, Corn","[11]; 0.5 lb/A, Sand 0.7% O.M.",0%
same,"% Phytotoxicity, Corn","[11]; 0.5 lb/A, Sand 1.8% O.M.",0%
same,"% Phytotoxicity, Corn",[11]; [17],0%
same,"% Phytotoxicity, Corn",[11]; [18],10%
same,"% Phytotoxicity, Corn","[11]; 1.0 lb/A, Sand 0.7% O.M.",0%
same,"% Phytotoxicity, Corn","[11]; 1.0 lb/A, Sand 1.8% O.M.",0%
same,"% Phytotoxicity, Corn",[11]; [19],10%
same,"% Phytotoxicity, Corn",[11]; [20],55%
same,"% Phytotoxicity, Corn","[11]; 2.0 lb/A, Sand 0.7% O.M.",10%
same,"% Phytotoxicity, Corn","[11]; 2.0 lb/A, Sand 1.8% O.M.",0%
same,"% Control, Yellow Foxtail",[12]; [15],98%
same,"% Control, Yellow Foxtail",[12]; [16],100%
same,"% Control, Yellow Foxtail","[12]; 0.5 lb/A, Sand 0.7% O.M.",45%
same,"% Control, Yellow Foxtail","[12]; 0.5 lb/A, Sand 1.8% O.M.",30%
same,"% Control, Yellow Foxtail",[12]; [17],100%
same,"% Control, Yellow Foxtail",[12]; [18],100%
same,"% Control, Yellow Foxtail","[12]; 1.0 lb/A, Sand 0.7% O.M.",65%
same,"% Control, Yellow Foxtail","[12]; 1.0 lb/A, Sand 1.8% O.M.",65%
same,"% Control, Yellow Foxtail",[12]; [19],100%
same,"% Control, Yellow Foxtail",[12]; [20],100%
same,"% Control, Yellow Foxtail","[12]; 2.0 lb/A, Sand 0.7% O.M.",90%
same,"% Control, Yellow Foxtail","[12]; 2.0 lb/A, Sand 1.8% O.M.",85%
same,"% Crop Kill, Corn",[13]; 0.5 lb/A,0%
same,"% Crop Kill, Corn",[13]; 1.0 lb/A,3%
same,"% Crop Kill, Corn",[13]; 2.0 lb/A,12%
same,mortality at 280.212 g/ha,[14]; 0.25 lb/A,88%
same,mortality at 560.425 g/ha,[14]; 0.5 lb/A,100%
same,mortality at 1120.85 g/ha,[14]; 1.0 lb/A,100%
same,mortality at 2241.7 g/ha,[14]; 2.0 lb/A,100%
